Consider one compound from patent US20090209503A1, “COLONIC DELIVERY THERAPEUTIC AGENTS FOR INFLAMMATORY BOWEL DISEASE” (AJINOMOTO CO. INC., priority 2005, published 2009).

The subject of data set [1] is epithelial injuries in the upper digestive tracts such as the stomach and the duodenum. Particulars: dose of about 2 g a day; Non-patent Literatures 8 and 9; cited from earlier work.
In the next data set the test system is rat models of TNBS. The conditions noted are these: 0.25 to 0.4 g/kg via the large intestinal route; Non-patent Literatures 13 and 14; cited from earlier work.
Data set [2] has as its system patients with ulcerative colitis. As to the kind of experiment: Comparative Example 1: 10 g L-glutamine via the large intestinal route, frequencies of bowel movements and diarrhea. It counts as in vivo, humans. How it is done:
10 g of L-glutamine was added to 60 mL of “Predonema®” Enema, and the mixture was administered via the large intestinal route to patients with ulcerative colitis. The frequencies of bowel movements and diarrhea were measured. […] Meanwhile, the patients were treated with “Predonema®” from Day 1 to Day 14, and 60 mL of “Predonema®” Enema prepared by adding 10 g of L-glutamine thereto was administered via the large intestinal route to the patients from Day 15 to Day 28.

Data set [3] shares this test system. As to the kind of experiment: Example 1: 2 g L-glutamine enema, frequencies of bowel movements and diarrhea, blood feces scores. It counts as in vivo, humans. More on the design: key to Blood feces score, Aft. admin.: blood feces score averaged per day: 0 = none, 1 = less, 3 = a lot. On the procedure:
Further, 60 mL of an enema agent prepared by adding 2 g of L-glutamine to sterilized water was administered via the large intestinal route to the patients with ulcerative colitis having the same symptoms as mentioned above (Case Nos. 5 and 9 to 14).
In addition, the patients with ulcerative colitis of Comparative Example and Example take a 5-ASA agent(s) (“Pentasas” or “Salazopyrin®”) as an oral agent conforming to dosage and administration.
The frequencies of bowel movements and diarrhea, and blood feces scores were measured of these patients.

In data set [4] the test system is DSS model in mice (ulcerative colitis developed by 5% DSS water). As to the kind of experiment: Drug efficacy test by enema administration of glutamine on DSS model in mice. In kind it is in vivo, mouse. Particulars: sixth day after start of drinking DSS water, FIG. 1. How it is done: 5% DSS water (dissolving dextran sulfate sodium in tap water) was drank ad lib by a male C57BL/6 Cr Slc mouse of 8 weeks old, and it developed ulcerative colitis. From one day before starting drinking of DSS water, L-glutamine was administered via the large intestinal route to the mouse once a day. An enema agent (solution) having the composition of 0.5% (w/v) carboxymethylcellulose—sodium was used as the enema agent. As the disease activity index, each average value of body weight scores, blood feces scores and diarrhea scores was calculated referring to the report of HS. Cooper et al. (Laboratory Investigation 1993; 69(2): 238).

The mark [5] stands for this setting: 2 g L-glutamine enema, with or without Predonema.
Where [6] appears, read: 2 g L-glutamine enema, oral 5-ASA agent.

SMILES strings stand for the structures. “And” between values parts separate entries of the source, which are not always exact repeats. Equal entries are not always repeated.

For `NC(=O)CC[C@H](N)C(=O)O` [Gln, L-glutamine], in data set [1], the “effectiveness against epithelial injuries in the upper digestive tracts” value was “effective”. Also, the “effectiveness in animal enteritis models” value with rat models of TNBS was “effective”. For the same compound, in data set [2] (10 g L-glutamine added to 60 mL Predonema Enema, Day 15 to Day 28, after Predonema alone Day 1 to Day 14, oral 5-ASA agent, FIG. 2), the “frequency of bowel movements” value is “increased”. In data set [2] (10 g L-glutamine added to 60 mL Predonema Enema, Day 15 to Day 28, oral 5-ASA agent), the “blood feces (observation of feces)” value is given as “improving effect of blood feces was recognized”. In data set [2] (10 g of L-glutamine via the large intestinal route to humans), the “frequency of bowel movements” value is reported as “frequency of bowel movements increases”. Also, in data set [3] (setting [5]), the “frequency of bowel movements (summary of Table 1)” value is on record as “maintained the frequency of bowel movements” and the “improvement in blood feces (summary of Table 1)” value is on record as “improvement in blood feces was recognized in all cases”. In addition, the “diarrhea (summary of Table 1)” value in data set [3] (2 g L-glutamine enema, as shown in Case Nos. 4 and 5) was “able to improve diarrhea”. In data set [3] (setting [6]), the “cases in which the blood feces improved” value is listed as 3 out of 7 and the “improvement rate (blood feces)” value stood at 43%. For the same compound, in data set [3] (2 g L-glutamine in 60 mL enema, admin. period 14-39 per case, oral 5-ASA agent, single patient, average per day, no blood feces: 0, less: 1, a lot: 3), the “Blood feces score, Aft. admin.” value is 1.3 and 1.0 (2×) and 0.8 and 0.9. The “Freq. of bowel movement, Aft. admin.” value in data set [3] (2 g L-glutamine in 60 mL enema, large intestinal route, admin. period 14-39 per case, all with oral 5-ASA agent, single patient) was 5.0 per a day and 5.3 per a day and 2.3 per a day and 13.9 per a day and 14.1 per a day. In addition, in data set [3] (2 g L-glutamine in 60 mL enema, large intestinal route, admin. period 14-39 per case, all with oral 5-ASA agent, single patient, number in ( )), the “freq. of diarrhea, Aft. admin.” value is 0.1 per a day and 0.4 per a day and 0.0 per a day (2×) and 2.6 per a day. The “course of administration (stopped for aggravation of symptoms after starting administration)” value in data set [3] (2 g L-glutamine in 60 mL sterilized water enema, oral 5-ASA agent, single patient) was “Stopped for aggravation”. Also, in data set [3] (baseline before administration, single patient (Case No.), average value per day of the period), the “Freq. of bowel movement, Bef. admin.” value was 4.5 per a day and 5.4 per a day and 2.5 per a day and 4.2 per a day and 6.7 per a day. Further, the “freq. of diarrhea, Bef. admin.” value in data set [3] (baseline before administration, single patient (Case No.), number in ( )) is 2.0 per a day and 0.9 per a day and 0.0 per a day (2×) and 1.5 per a day. Also, the “Blood feces score, Bef. admin.” value in data set [3] (baseline before administration, single patient, average per day, no blood feces: 0, less: 1, a lot: 3) is 2.2 and 1.3 (2×) and 0.8 and 1.0. Moreover, the “disease activity index (average of body weight, blood feces and diarrhea scores) versus vehicle-treated group” value in data set [4] (30 mg/kg once a day via the large intestinal route) is on record as “no significant difference”. In data set [4] (100 mg/kg once a day via the large intestinal route), the “disease activity index (average of body weight, blood feces and diarrhea scores) versus vehicle-treated group” value is “no significant difference”.
